# “And” between values parts separate entries of the source, which are not always exact repeats. Equal entries are not always repeated.
# Columns and labels:
# [1] = Hepatic microsomal stability, MLM; format: in vitro ADME
# [2] = In vitro human hepatocyte stability; format: in vitro ADME
# Source text: Supplement media-1.zip/Hepatocyte_Stability.csv, table | column: clint; t_half
# CYP = CYP inhibition; format: in vitro ADME; conditions: In vitro CYP inhibition pooled; for potency: potency class in words
# Source text: Supplement media-1.zip/CYP_Inhibition.csv, table | column: ic50; potency
# alpha2A (h) = target: T1, alpha2A (h) (Homo sapiens, UniProt P08913); assay: In vitro CEREP profiling, alpha2A (h) (antagonist radioligand); format: binding; conditions: test compound 10 uM
# T1 construct: purchased Eurofins Cerep (SafetyScreen44), recognised from the panel format
# T1 sequence (P08913 1-465): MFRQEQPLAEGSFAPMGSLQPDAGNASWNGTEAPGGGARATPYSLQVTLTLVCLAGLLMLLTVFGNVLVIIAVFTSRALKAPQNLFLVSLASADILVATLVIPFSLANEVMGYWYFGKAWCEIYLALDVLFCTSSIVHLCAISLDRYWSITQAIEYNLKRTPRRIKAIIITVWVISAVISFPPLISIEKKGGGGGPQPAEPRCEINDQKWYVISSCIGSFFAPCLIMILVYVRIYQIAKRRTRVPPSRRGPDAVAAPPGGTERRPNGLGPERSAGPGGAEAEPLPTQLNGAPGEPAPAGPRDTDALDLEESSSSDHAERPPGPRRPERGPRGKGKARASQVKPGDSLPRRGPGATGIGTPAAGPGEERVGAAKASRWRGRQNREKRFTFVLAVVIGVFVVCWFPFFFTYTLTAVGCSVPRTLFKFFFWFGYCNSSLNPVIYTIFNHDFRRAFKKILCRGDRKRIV
# Source text: (§1) Supplement media-1.zip/Safety_Panel_Profile.csv, table | column: perc_inhibition
# COX2(h) = target: T2, COX2(h) (Homo sapiens, UniProt P35354); assay: In vitro CEREP profiling, COX2(h); format: biochemical; conditions: test compound concentration 10 uM, Enzyme and Cell-based assays
# T2 construct: purchased Eurofins Cerep (SafetyScreen44), recognised from the panel format
# T2 sequence (P35354 18-604): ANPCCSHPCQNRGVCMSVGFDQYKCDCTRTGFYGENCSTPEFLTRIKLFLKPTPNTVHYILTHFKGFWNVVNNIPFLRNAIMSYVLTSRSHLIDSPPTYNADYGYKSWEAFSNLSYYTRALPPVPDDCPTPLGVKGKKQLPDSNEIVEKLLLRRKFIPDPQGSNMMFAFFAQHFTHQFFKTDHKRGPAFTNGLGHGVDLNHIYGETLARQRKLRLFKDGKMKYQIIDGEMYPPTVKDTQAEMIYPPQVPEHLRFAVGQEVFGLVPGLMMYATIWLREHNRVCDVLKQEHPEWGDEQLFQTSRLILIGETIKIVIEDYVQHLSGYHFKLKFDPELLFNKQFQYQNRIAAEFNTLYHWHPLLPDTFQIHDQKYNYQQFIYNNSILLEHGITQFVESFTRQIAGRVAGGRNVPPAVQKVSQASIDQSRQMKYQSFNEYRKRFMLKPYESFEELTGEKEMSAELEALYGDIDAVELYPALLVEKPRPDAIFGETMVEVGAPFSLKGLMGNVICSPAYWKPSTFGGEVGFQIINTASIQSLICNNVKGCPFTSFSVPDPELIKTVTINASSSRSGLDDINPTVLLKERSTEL
# Source text: as §1
# Vero E6/TMPRSS2 = Vero E6/TMPRSS2 cytotoxicity with P-gp inhibitor; format: cell-based; conditions: for perc_max_measured: highest measured response of the dose series; for perc_min_measured: lowest measured response of the dose series
# Source text: Supplement media-1.zip/Cytotoxicity.csv, table | column: cc10; cc50; perc_min_measured; perc_max_measured
# 5-HT3 (h) = target: T3, 5-HT3 (h) (Homo sapiens, UniProt P46098); assay: In vitro CEREP profiling, 5-HT3 (h) (antagonist radioligand); format: binding; conditions: test compound concentration 10 uM
# T3 construct: purchased Eurofins Cerep (SafetyScreen44), recognised from the panel format
# T3 sequence (P46098 24-478): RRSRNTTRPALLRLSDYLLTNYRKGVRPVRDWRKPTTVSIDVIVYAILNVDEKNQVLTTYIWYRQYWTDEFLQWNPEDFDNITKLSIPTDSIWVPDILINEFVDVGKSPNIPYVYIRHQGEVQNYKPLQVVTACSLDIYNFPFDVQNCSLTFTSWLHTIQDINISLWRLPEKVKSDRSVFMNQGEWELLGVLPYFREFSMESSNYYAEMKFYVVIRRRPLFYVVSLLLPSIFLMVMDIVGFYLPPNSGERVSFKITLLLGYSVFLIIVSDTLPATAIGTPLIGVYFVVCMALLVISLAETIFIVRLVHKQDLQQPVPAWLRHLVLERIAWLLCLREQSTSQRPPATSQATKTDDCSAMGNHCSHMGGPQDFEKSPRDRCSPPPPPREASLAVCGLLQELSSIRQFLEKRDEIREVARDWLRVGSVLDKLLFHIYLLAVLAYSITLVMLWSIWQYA
# Source text: as §1
# PDE3A (h) = target: T4, PDE3A (h) (Homo sapiens, UniProt Q14432); assay: In vitro CEREP profiling, PDE3A (h); format: biochemical; conditions: test compound concentration 10 uM, Enzyme and Cell-based assays
# T4 construct: purchased Eurofins Cerep (SafetyScreen44), recognised from the panel format
# T4 sequence (Q14432 whole entry): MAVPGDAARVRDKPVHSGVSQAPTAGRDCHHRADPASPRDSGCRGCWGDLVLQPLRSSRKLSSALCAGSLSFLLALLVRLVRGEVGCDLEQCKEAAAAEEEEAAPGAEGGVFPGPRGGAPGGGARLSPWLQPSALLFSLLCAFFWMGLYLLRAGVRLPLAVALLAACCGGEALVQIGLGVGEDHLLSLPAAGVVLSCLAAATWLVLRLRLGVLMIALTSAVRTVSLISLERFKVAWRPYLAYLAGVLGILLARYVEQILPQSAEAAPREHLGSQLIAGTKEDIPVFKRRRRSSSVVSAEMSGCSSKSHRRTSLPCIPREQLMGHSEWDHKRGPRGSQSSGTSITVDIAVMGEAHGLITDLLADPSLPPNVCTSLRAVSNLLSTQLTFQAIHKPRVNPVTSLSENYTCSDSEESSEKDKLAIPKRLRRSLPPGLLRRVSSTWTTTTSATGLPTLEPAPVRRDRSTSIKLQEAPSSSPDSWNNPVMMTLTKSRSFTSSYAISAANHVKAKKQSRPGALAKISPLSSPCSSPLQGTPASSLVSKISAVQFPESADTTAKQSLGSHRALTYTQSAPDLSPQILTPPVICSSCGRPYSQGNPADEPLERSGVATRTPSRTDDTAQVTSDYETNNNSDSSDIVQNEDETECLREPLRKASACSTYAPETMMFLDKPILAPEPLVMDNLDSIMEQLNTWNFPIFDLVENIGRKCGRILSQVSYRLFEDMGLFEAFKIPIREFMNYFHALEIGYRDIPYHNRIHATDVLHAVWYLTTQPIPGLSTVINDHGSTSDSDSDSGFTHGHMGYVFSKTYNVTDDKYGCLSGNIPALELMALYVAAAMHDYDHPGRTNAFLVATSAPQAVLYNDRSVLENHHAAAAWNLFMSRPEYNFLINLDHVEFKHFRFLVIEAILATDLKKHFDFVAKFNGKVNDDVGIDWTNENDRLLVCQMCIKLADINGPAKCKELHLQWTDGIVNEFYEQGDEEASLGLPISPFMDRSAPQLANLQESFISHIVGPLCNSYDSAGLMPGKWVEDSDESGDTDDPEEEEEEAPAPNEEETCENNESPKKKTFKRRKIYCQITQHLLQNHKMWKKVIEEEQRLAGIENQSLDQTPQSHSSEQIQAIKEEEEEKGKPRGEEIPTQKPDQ
# Source text: as §1
# M3 (h) = target: T5, M3 (h) (Homo sapiens, UniProt P20309); assay: In vitro CEREP profiling, M3 (h) (antagonist radioligand); format: binding; conditions: test compound concentration 10 uM
# T5 construct: purchased Eurofins Cerep (SafetyScreen44), recognised from the panel format
# T5 sequence (P20309 whole entry): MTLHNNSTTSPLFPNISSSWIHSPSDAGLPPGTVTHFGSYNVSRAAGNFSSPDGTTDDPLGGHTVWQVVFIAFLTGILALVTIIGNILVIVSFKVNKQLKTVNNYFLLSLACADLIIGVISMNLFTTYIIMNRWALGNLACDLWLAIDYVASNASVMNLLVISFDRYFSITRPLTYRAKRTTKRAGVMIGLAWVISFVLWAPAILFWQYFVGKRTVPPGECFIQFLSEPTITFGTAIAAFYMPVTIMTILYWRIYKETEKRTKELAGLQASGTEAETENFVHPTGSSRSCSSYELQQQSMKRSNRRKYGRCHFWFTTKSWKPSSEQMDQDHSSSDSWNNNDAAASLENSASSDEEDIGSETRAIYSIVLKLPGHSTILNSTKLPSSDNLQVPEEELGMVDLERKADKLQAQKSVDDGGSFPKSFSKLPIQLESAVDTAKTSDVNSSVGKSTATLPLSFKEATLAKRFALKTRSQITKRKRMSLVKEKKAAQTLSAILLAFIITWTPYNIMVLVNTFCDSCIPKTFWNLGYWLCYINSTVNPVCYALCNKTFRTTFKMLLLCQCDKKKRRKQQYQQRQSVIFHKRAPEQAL
# Source text: as §1
# mu (MOP) (h) = target: T6, mu (MOP) (h) (Homo sapiens, UniProt P35372); assay: In vitro CEREP profiling, mu (MOP) (h) (agonist radioligand); format: binding; conditions: test compound concentration 10 uM
# T6 construct: purchased Eurofins Cerep (SafetyScreen44), recognised from the panel format
# T6 sequence (P35372 whole entry): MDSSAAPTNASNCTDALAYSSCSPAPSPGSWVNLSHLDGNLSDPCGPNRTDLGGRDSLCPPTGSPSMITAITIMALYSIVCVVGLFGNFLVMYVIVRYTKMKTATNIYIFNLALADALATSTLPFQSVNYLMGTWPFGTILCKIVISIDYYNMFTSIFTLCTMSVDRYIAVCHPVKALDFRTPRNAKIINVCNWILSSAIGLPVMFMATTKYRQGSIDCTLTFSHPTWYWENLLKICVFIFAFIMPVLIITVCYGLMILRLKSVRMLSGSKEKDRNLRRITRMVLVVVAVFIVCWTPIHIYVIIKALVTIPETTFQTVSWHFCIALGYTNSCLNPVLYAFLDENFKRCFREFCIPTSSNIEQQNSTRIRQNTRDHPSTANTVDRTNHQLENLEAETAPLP
# Source text: as §1
# [3] = In vitro rat SD liver microsomal stability; format: in vitro ADME
# Source text: Supplement media-1.zip/Hepatic_Microsomal_Stability.csv, table | column: clint; t_half
# Na+ channel (site 2) = assay: In vitro CEREP profiling, Na+ channel (site 2) (antagonist radioligand); format: binding; conditions: test compound concentration 10 uM
# Source text: as §1
# [4] = target: T7, norepinephrine transporter (h) (Homo sapiens, UniProt P23975); assay: In vitro CEREP profiling, norepinephrine transporter (h) (antagonist radioligand); format: binding; conditions: test compound concentration 10 uM
# T7 construct: purchased Eurofins Cerep (SafetyScreen44), recognised from the panel format
# T7 sequence (P23975 whole entry): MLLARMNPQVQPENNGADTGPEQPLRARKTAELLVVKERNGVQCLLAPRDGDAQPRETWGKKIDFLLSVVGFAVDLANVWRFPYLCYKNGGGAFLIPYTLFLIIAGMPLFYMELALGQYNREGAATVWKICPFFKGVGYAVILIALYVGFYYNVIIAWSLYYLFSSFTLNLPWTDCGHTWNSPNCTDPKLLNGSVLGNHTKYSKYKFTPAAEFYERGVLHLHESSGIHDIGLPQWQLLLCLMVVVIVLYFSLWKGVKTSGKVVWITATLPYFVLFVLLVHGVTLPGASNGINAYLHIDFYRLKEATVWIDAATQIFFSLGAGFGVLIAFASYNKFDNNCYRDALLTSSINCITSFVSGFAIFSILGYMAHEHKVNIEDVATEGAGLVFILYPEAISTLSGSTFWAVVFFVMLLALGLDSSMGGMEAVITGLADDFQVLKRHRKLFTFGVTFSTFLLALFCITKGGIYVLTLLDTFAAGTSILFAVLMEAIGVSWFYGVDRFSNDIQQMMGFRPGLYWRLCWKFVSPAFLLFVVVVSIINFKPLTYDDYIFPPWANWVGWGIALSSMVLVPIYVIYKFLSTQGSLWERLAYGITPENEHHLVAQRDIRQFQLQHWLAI
# Source text: as §1
# [5] = In vitro mouse liver microsomal stability
# [6] = In vitro mouse liver microsomal stability; no cofactor
# [7] = In vitro mouse liver microsomal stability, no cofactor
# [8] = read-out: perc_inhibition (% inhibition of the binding of a ligand specific for each target)
# [9] = read-out: perc_inhibition, % inhibition of the binding of a ligand specific for each target
smiles,measurement,setting,value
CC(C)C(Nc1ncnc2[nH]ccc12)c1ccc2c(c1)S(=O)(=O)CCC2 (stereo not shown) [ASAP-0008327],perc_remaining,[1]; [5],10.0%
same,t_half,[1]; [5],12.1 min
same,perc_remaining_no_cofactor,[1]; [6],103.0%
same,microsomal CLint,"[1]; mouse, liver microsomes, In vitro mouse liver microsomal stability",138 µL/min/mg
COc1ccc([C@@H](Cc2nnn[nH]2)NC(=O)c2ncnc3[nH]ccc23)cc1 [ASAP-0008340],perc_remaining,[1]; [5],96.0%
same,t_half,[1]; [5],4400.5 min
same,perc_remaining_no_cofactor,[1]; [7],93.0%
CC(C)[C@@H](Nc1ncnc2[nH]c(-c3cnn(C)c3C#N)cc12)c1ccc2c(n1)OCCO2 [ASAP-0008418],clint,[1]; [5],139.0 µL/min/mg and 169.0 µL/min/mg
same,perc_remaining,[1]; [5],10.0% and 6.0%
same,t_half,[1]; [5],12.0 min and 9.9 min
same,perc_remaining_no_cofactor,[1]; [7],101.0%
same,perc_remaining_no_cofactor,[1]; [6],110.0%
CC(C)[C@H](Nc1ncnc2[nH]ccc12)c1ccc2c(c1)S(=O)(=O)CCC2 [ASAP-0008674],clint,[1]; [5],207.0 µL/min/mg
same,perc_remaining,[1]; [5],3.0%
same,t_half,[1]; [5],8.1 min
same,perc_remaining_no_cofactor,[1]; [7],104.0%
same,clint,[2],27.9 uL/min/1E6 cells
same,t_half,[2],24.8 min
same,IC50,CYP; isoform 1A2,> 50 µM
same,potency,CYP; isoform 1A2,weak
same,IC50,CYP; isoform 2C9,18.2 µM
same,potency,CYP; isoform 2C9,weak
same,IC50,CYP; isoform 2C19,15 µM
same,potency,CYP; isoform 2C19,weak
same,IC50,CYP; isoform 2D6,> 50 µM
same,potency,CYP; isoform 2D6,weak
same,IC50,CYP; isoform 3A4,3.2 µM
same,potency,CYP; isoform 3A4,moderate
same,perc_inhibition (% inhibition of the binding of a ligand specific for each target),alpha2A (h),10%
same,"perc_inhibition: % inhibition of control enzyme activity, COX2(h)",COX2(h),23%
same,CC50,Vero E6/TMPRSS2,> 5 µM
same,cc10,Vero E6/TMPRSS2,> 5.0 µM
same,perc_max_measured,Vero E6/TMPRSS2,135.379% and 119.601%
same,perc_min_measured,Vero E6/TMPRSS2,95.549% and 105.983%
same,perc_inhibition (% inhibition of the binding of a ligand specific for each target),5-HT3 (h),8%
same,"perc_inhibition: % inhibition of control enzyme activity, PDE3A (h)",PDE3A (h),29%
same,perc_inhibition (% inhibition of the binding of a ligand specific for each target),M3 (h),5%
same,perc_inhibition (% inhibition of the binding of a ligand specific for each target),mu (MOP) (h),8%
same,clint,[3],155.0 µL/min/mg
same,t_half,[3],4.49 min
same,perc_inhibition (% inhibition of the binding of a ligand specific for each target),Na+ channel (site 2),-5%
same,perc_inhibition (% inhibition of the binding of a ligand specific for each target),[4],-3%
CC(C)[C@H](Nc1ncnc2[nH]c(-c3cnn(C)c3C#N)cc12)c1ccc2c(n1)OCCO2 [ASAP-0010715],clint,[2],28.7 uL/min/1E6 cells
same,t_half,[2],24.2 min
same,IC50,CYP; isoform 1A2,35.2 µM
same,potency,CYP; isoform 1A2,weak
same,IC50,CYP; isoform 2C9,5.93 µM
same,potency,CYP; isoform 2C9,moderate
same,IC50,CYP; isoform 2C19,16.9 µM
same,potency,CYP; isoform 2C19,weak
same,IC50,CYP; isoform 2D6,27.7 µM
same,potency,CYP; isoform 2D6,weak
same,IC50,CYP; isoform 3A4,3.69 µM
same,potency,CYP; isoform 3A4,moderate
same,perc_inhibition (% inhibition of the binding of a ligand specific for each target),alpha2A (h),7%
same,"perc_inhibition: % inhibition of control enzyme activity, COX2(h)",COX2(h),-2%
same,CC50,Vero E6/TMPRSS2,> 5 µM
same,cc10,Vero E6/TMPRSS2,> 5.0 µM
same,perc_max_measured,Vero E6/TMPRSS2,109.412%
same,perc_min_measured,Vero E6/TMPRSS2,72.414%
same,perc_inhibition (% inhibition of the binding of a ligand specific for each target),5-HT3 (h),6%
same,"perc_inhibition: % inhibition of control enzyme activity, PDE3A (h)",PDE3A (h),37%
same,perc_inhibition (% inhibition of the binding of a ligand specific for each target),M3 (h),-15%
same,perc_inhibition (% inhibition of the binding of a ligand specific for each target),mu (MOP) (h),15%
same,clint,[3],106.0 µL/min/mg
same,t_half,[3],6.54 min
same,perc_inhibition (% inhibition of the binding of a ligand specific for each target),Na+ channel (site 2),10%
same,perc_inhibition (% inhibition of the binding of a ligand specific for each target),[4],9%
Cn1ncc(-c2cc3c(N[C@@H](c4ccc5c(n4)OCCO5)C(C)(C)C)ncnc3[nH]2)c1C#N [ASAP-0011221],clint,[1]; [5],226.0 µL/min/mg
same,perc_remaining,[1]; [5],2.0%
same,t_half,[1]; [5],7.4 min
same,perc_remaining_no_cofactor,[1]; [7],94.0%
same,clint,[2],171.0 uL/min/1E6 cells
same,t_half,[2],4.04 min
same,IC50,CYP; isoform 1A2,> 50 µM
same,potency,CYP; isoform 1A2,weak
same,IC50,CYP; isoform 2C9,42.6 µM
same,potency,CYP; isoform 2C9,weak
same,IC50,CYP; isoform 2C19,> 50 µM
same,potency,CYP; isoform 2C19,weak
same,IC50,CYP; isoform 2D6,20.5 µM
same,potency,CYP; isoform 2D6,weak
same,IC50,CYP; isoform 3A4,8.79 µM
same,potency,CYP; isoform 3A4,moderate
same,perc_inhibition (% inhibition of the binding of a ligand specific for each target),alpha2A (h),11%
same,"perc_inhibition: % inhibition of control enzyme activity, COX2(h)",COX2(h),-9%
same,perc_inhibition (% inhibition of the binding of a ligand specific for each target),5-HT3 (h),3%
same,"perc_inhibition: % inhibition of control enzyme activity, PDE3A (h)",PDE3A (h),37%
same,perc_inhibition (% inhibition of the binding of a ligand specific for each target),M3 (h),-8%
same,perc_inhibition (% inhibition of the binding of a ligand specific for each target),mu (MOP) (h),28%
same,clint,[3],129.0 µL/min/mg
same,t_half,[3],5.38 min
same,perc_inhibition (% inhibition of the binding of a ligand specific for each target),Na+ channel (site 2),34%
same,perc_inhibition (% inhibition of the binding of a ligand specific for each target),[4],27%
Cc1nn(C)cc1-c1cc2c(NC(c3ccc4c(c3)S(=O)(=O)CCC4)C(C)C)ncnc2[nH]1 (stereo not shown) [ASAP-0011446],perc_remaining,[1]; [5],4.0%
same,t_half,[1]; [5],8.3 min
same,perc_remaining_no_cofactor,[1]; [7],104.0%
same,microsomal CLint,[1]; liver microsomes; In vitro mouse liver microsomal stability,202 µL/min/mg
same,inhibition at 10 µM,alpha2A (h); [8],5%
same,inhibition at 10 µM,"COX2(h); read-out: perc_inhibition: % inhibition of control enzyme activity, COX2(h)",23%
same,cc10,Vero E6/TMPRSS2,> 5.0 µM
same,perc_max_measured,Vero E6/TMPRSS2,106.351%
same,perc_min_measured,Vero E6/TMPRSS2,79.435%
same,inhibition at 10 µM,5-HT3 (h); [9],6%
same,inhibition at 10 µM,"PDE3A (h); read-out: perc_inhibition: % inhibition of control enzyme activity, PDE3A (h)",46%
same,inhibition at 10 µM,M3 (h); [8],-9%
same,inhibition at 10 µM,mu (MOP) (h); [8],28%
same,perc_inhibition (% inhibition of the binding of a ligand specific for each target),Na+ channel (site 2),-1%
same,inhibition at 10 µM,[4]; [9],-2%

# — publication doi:10.1101/2024.08.19.608619, “Discovery of potent SARS-CoV-2 nsp3 macrodomain inhibitors uncovers lack of translation to cellular antiviral response” (bioRxiv, 2024)
